How the values were obtained:
[1] = system: U937 human histiocytic leukemia cell line; test: Off-target effect (cell based assay), reported with assay 1
Protocol: (§1) Assay 1: Screening Compounds for Inhibition of TSQ Induced Necroptosis, 96 Well Plate Format.
(§2) Cell Line ID: […] human histiocytic leukemia cell line.
(§3) Cell Concentration (cells/well): 35,000 per well in 120 μL of media, counted and plated immediately prior to addition of inhibitor and death stimuli. Final well volume of 150 μL after addition of compounds and death stimuli
(§4) Cell growth medium: HTRPMI (WEHI Media kitchen, contains L-Glutamine and penicillin, streptomycin)—supplemented with 7.4% v/v FCS (Gibco, Precision Plus. Lot #1221437)
(§5) Incubation time (hours): 48 hours following addition of compounds and death stimuli
(§6) Compound Concentrations—Log Titrations:
(§7) DMSO final concentration (% v/v): 1.2% in 10 μM well to 0.2% in the control well.
(§8) Cells treated with PI staining (1 μg/ml) and analysed by flow cytometry

[2] = system: U937 human histiocytic leukemia cell line; test: Assay 1: inhibition of TSQ induced necroptosis, 96 well plate format; format: cell-based
Protocol: For in vitro analysis, the necroptosis inhibition may be determined by assays used to measure TSQ-induced necroptosis, as described in the biological tests defined herein.
as §1, §2, §3, §4, §5, §6, §7
Compounds that are in the Death Stimulation Cocktail and Their Final Concentrations:
hTNF-Fc (100 ng/ml)—produced by standard procedures as shown in Bossen et al., J Biol Chem, 2006, 281(20), 13964-13971.
Compound A (500 nM)—Smac mimetic, Tetralogic
Q-VD-OPh (10 μM)—MP Biomedicals
as §8

[3] = U-937, Table 1, assay 1, read-out: Off-target effect (cell based assay) IC50
[4] = U-937, Table 1, assay 1, hTNF-Fc 100 ng/ml, Compound A 500 nM, Q-VD-OPh 10 μM, 48 hours, PI staining, flow cytometry, read-out: Inhibition of TSQ-induced necroptosis (cell based assay) IC50
[5] = U-937, comparison tables of the description, values as in Table 1 (assay 1), read-out: IC50 (nM) Off-Target Effect
[6] = U-937, comparison tables of the description, values as in Table 1 (assay 1), read-out: IC50 (nM) Necroptosis inhibition

`CN(c1ccc(NC(=O)Nc2ccc(OC(F)(F)F)cc2)cc1)c1nc(Nc2cccc(S(N)(=O)=O)c2)ncc1F` [Compound 5, 3-((5-Fluoro-4-(methyl(4-(3-(4-(trifluoromethoxy)phenyl)ureido)phenyl)amino)pyrimidin-2-yl)amino) benzenesulfonamide] showed an IC50 [1, 3] of 3110 nM and an IC50 [2, 4] of 30 nM.
Work on `CN(c1ccc(NC(=O)Nc2ccc(OC(F)(F)F)cc2)cc1)c1ccnc(Nc2cccc(C#N)c2)n1` [Compound 21, 1-(4-((2-(3-cyanophenylamino)pyrimidin-4-yl)(methyl)amino)phenyl)-3-(4-(trifluoromethoxy)phenyl)urea] yielded an IC50 [1, 3] of over 10000 nM and an IC50 [2, 4] of 476 nM.
In the case of `CNC(=O)c1cc(Nc2ncc(F)c(N(C)c3ccc(NC(=O)Nc4ccc(OC(F)(F)F)cc4)cc3)n2)ccc1C` [Compound 12, 5-((5-Fluoro-4-(methyl(4-(3-(4-(trifluoromethoxy)phenyl)ureido)phenyl)amino)pyrimidin-2-yl)amino)-N,2-dimethylbenzamide], the IC50 [1, 3] is reported as over 10000 nM, the IC50 [1, 5] is reported as over 10000 nM and the IC50 [2, 4] is reported as 10.1 nM. For the same molecule, the IC50 [2, 6] was 10.1 nM.
With `Cc1ccc(Nc2nccc(N(C)c3ccc(NC(=O)Nc4cc(F)cc(C(F)(F)F)c4)cc3)n2)cc1C(=O)N1CCOCC1` [Compound 25, 1-(3-fluoro-5-(trifluoromethyl)phenyl)-3-(4-(methyl(2-((4-methyl-3-(morpholine-4-carbonyl)phenyl)amino)pyrimidin-4-yl)amino)phenyl)urea] the IC50 [1, 3] was 2280 nM and the IC50 [2, 4] was 9.2 nM.
In the case of `Cc1ccc(Nc2nccc(N(C)c3ccc(NC(=O)Nc4ccc(OC(F)(F)F)cc4)cc3)n2)cc1CN1CCOCC1` [Compound 18, 1-(4-(methyl(2-((4-methyl-3-(morpholinomethyl)phenyl)amino)pyrimidin-4-yl)amino)phenyl)-3-(4-(trifluoromethoxy)phenyl)urea], the IC50 [1, 3] is reported as over 10000 nM and the IC50 [2, 4] is reported as 514 nM.
With `CN(c1ccc(NC(=O)Nc2ccc(OC(F)(F)F)cc2)cc1)c1nc(Nc2cccc(S(N)(=O)=O)c2)ncc1C(F)(F)F` [Compound 6a, 3-((4-(Methyl(4-(3-(4-(trifluoromethoxy)phenyl)ureido)phenyl)amino)-5-(trifluoromethyl)pyrimidin-2-yl)amino)benzenesulfonamide] the IC50 [1, 5] was 5070 nM and the IC50 [2, 6] was over 10000 nM.
With `Cc1ccc(Nc2nccc(N(C)c3ccc(NC(=O)Nc4ccc(OC(F)(F)F)cc4)cc3)n2)cc1CN1CCN(C)CC1` [Compound 23, 1-(4-(methyl(2-((4-methyl-3-((4-methylpiperazin-1-yl)methyl)phenyl)amino)pyrimidin-4-yl)amino)phenyl)-3-(4-(trifluoromethoxy)phenyl)urea] the IC50 [1, 3] was 6380 nM and the IC50 [2, 4] was 202 nM.
In the case of `CNC(=O)c1cc(Nc2nccc(N(C)c3ccc(NC(=O)Nc4ccc(OC(F)(F)F)cc4)cc3)n2)ccc1N1CCOCC1` [Compound 17, N-methyl-5-((4-(methyl(4-(3-(4-(trifluoromethoxy)phenyl)ureido)phenyl)amino)pyrimidin-2-yl)amino)-2-morpholinobenzamide], the IC50 [1, 3] is reported as 5670 nM and the IC50 [2, 4] is reported as 38.3 nM.
`CNC(=O)c1cc(Nc2nccc(N(C)c3ccc(NC(=O)Nc4ccc(Cl)c(C(F)(F)F)c4)cc3)n2)ccc1C` [Compound 14, 5-((4-((4-(3-(4-Chloro-3-(trifluoromethyl)phenyl)ureido)phenyl)(methyl)amino)pyrimidin-2-yl)amino)-N,2-dimethylbenzamide] gave an IC50 [1, 3] of 1630 nM and an IC50 [2, 4] of 8.9 nM.
For `CN(c1ccc(NC(=O)Nc2ccc(OC(F)(F)F)cc2)cc1)c1nc(Nc2cccc(S(N)(=O)=O)c2)ncc1Cl` [Compound 2, 3-((5-Chloro-4-(methyl(4-(3-(4-(trifluoromethoxy)phenyl)ureido)phenyl)amino)pyrimidin-2-yl)amino) benzenesulfonamide], the IC50 [1, 3] was 2110 nM, the IC50 [1, 5] was 2110 nM and the IC50 [2, 4] was 29.5 nM. For the same molecule, the IC50 [2, 6] was 29.5 nM.
For `CN(c1ccc(NC(=O)Nc2ccc(OC(F)(F)F)cc2)cc1)c1ccnc(Nc2cccc(O)c2)n1` [Compound 19, 1-(4-((2-(3-hydroxyphenylamino)pyrimidin-4-yl)(methyl)amino)phenyl)-3-(4-(trifluoromethoxy)phenyl)urea], the IC50 [1, 3] was over 10000 nM and the IC50 [2, 4] was 1160 nM.
In the case of `CC(=O)Nc1cc(Nc2nccc(N(C)c3ccc(NC(=O)Nc4ccc(OC(F)(F)F)cc4)cc3)n2)ccc1C` [Compound 28, N-(2-methyl-5-((4-(methyl(4-(3-(4-(trifluoromethoxy)phenyl)ureido)phenyl)amino)pyrimidin-2-yl)amino)phenyl)acetamide], the IC50 [1, 3] is reported as 980 nM and the IC50 [2, 4] is reported as 93 nM.
In the case of `CNC(=O)c1cc(Nc2nccc(N(C)c3ccc(NC(=O)Nc4cc(F)cc(C(F)(F)F)c4)cc3)n2)ccc1N1CCN(C)CC1` [Compound 31], the IC50 [2, 4] is reported as 13 nM.
With `COc1cccc(Nc2nccc(N(C)c3ccc(NC(=O)Nc4ccc(OC(F)(F)F)cc4)cc3)n2)c1` [Compound 20, 1-(4-((2-(3-methoxyphenylamino)pyrimidin-4-yl)(methyl)amino)phenyl)-3-(4-(trifluoromethoxy)phenyl)urea] the IC50 [1, 3] was over 10000 nM and the IC50 [2, 4] was 504 nM.
For `CNC(=O)c1cc(Nc2nccc(N(C)c3ccc(NC(=O)Nc4cc(Cl)cc(C(F)(F)F)c4)cc3)n2)ccc1C` [Compound 29, 5-((4-((4-(3-(3-chloro-5-(trifluoromethyl)phenyl)ureido)phenyl)(methyl)amino)pyrimidin-2-yl)amino)-N,2-dimethylbenzamide], the IC50 [1, 3] was 2050 nM and the IC50 [2, 4] was 20 nM.
Work on `CN(c1ccc(NC(=O)Nc2ccc(OC(F)(F)F)cc2)cc1)c1ccnc(Nc2cccc(S(N)(=O)=O)c2)n1` [Compound 1 from AU 2014903569, reference compound] yielded an IC50 [1, 5] of 3570 nM and an IC50 [2, 6] of 67.9 nM.
In the case of `CNC(=O)c1cc(Nc2nccc(N(C)c3ccc(NC(=O)Nc4cc(F)cc(C(F)(F)F)c4)cc3)n2)ccc1OC` [Compound 30, 5-((4-((4-(3-(3-fluoro-5-(trifluoromethyl)phenyl)ureido)phenyl)(methyl)amino)pyrimidin-2-yl)amino)-2-methoxy-N-methylbenzamide], the IC50 [1, 3] is reported as 6680 nM and the IC50 [2, 4] is reported as 58 nM.
Work on `CNC(=O)c1cc(Nc2nccc(N(C)c3ccc(NC(=O)Nc4ccc(OC(F)(F)F)cc4)cc3)n2)ccc1C` [Compound 3, N-2-Dimethyl-5-((4-(methyl(4-(3-(4-(trifluoromethoxy)phenyl)ureido)phenyl)amino)pyrimidin-2-yl)amino)benzamide] yielded an IC50 [1, 3] of over 10000 nM, an IC50 [1, 5] of over 10000 nM and an IC50 [2, 4] of 93.1 nM. The IC50 [2, 6] was 93.1 nM.
With `CNC(=O)c1cc(Nc2nccc(N(C)c3ccc(NC(=O)Nc4cccc(C#N)c4)cc3)n2)ccc1C` [Compound 33, 5-((4-((4-(3-(3-cyanophenyl)ureido)phenyl)(methyl)amino)pyrimidin-2-yl)amino)-N,2-dimethylbenzamide] the IC50 [1, 3] was 4130 nM and the IC50 [2, 4] was 164 nM.
`Cc1ccc(Nc2nccc(N(C)c3ccc(NC(=O)Nc4ccc(OC(F)(F)F)cc4)cc3)n2)cc1C(N)=O` [Compound 4, 2-Methyl-5-((4-(methyl(4-(3-(4-(trifluoromethoxy)phenyl)ureido)phenyl)amino)pyrimidin-2-yl)amino) benzamide] was tested, and the IC50 [1, 3] was 7410 nM and the IC50 [2, 4] was 154 nM.
Molecule `CN(c1ccc(NC(=O)Nc2ccc(OC(F)(F)F)cc2)cc1)c1ccnc(Nc2cccc(N)c2)n1` [Compound 22, 1-(4-((2-(3-aminophenylamino)pyrimidin-4-yl)(methyl)amino)phenyl)-3-(4-(trifluoromethoxy)phenyl)urea] has an IC50 [1, 3] of over 10000 nM and an IC50 [2, 4] of 427 nM.
`CN(c1ccc(NC(=O)Nc2ccc(OC(F)(F)F)cc2)cc1)c1ccnc(Nc2cccc(-c3nnn(C)n3)c2)n1` [Compound 11, 1-(4-(Methyl(2-((3-(2-methyl-2H-tetrazol-5-yl)phenyl)amino)pyrimidin-4-yl)amino)phenyl)-3-(4-(trifluoromethoxy)phenyl)urea] was tested, and the IC50 [1, 3] was 1350 nM and the IC50 [2, 4] was 7.5 nM.
`CNC(=O)c1cc(Nc2nccc(N(C)c3ccc(NC(=O)Nc4cc(F)cc(C(F)(F)F)c4)cc3)n2)ccc1C` [Compound 16, 5-(4-((4-(3-(3-fluoro-5-(trifluoromethyl)phenyl)ureido)phenyl)(methyl)amino)-pyrimidin-2-ylamino)-N,2-dimethylbenzamide] was tested, and the IC50 [1, 3] was 1230 nM and the IC50 [2, 4] was 10.8 nM.
For `COCCNC(=O)c1cc(Nc2nccc(N(C)c3ccc(NC(=O)Nc4ccc(OC(F)(F)F)cc4)cc3)n2)ccc1C` [Compound 9, N-(2-Methoxyethyl)-2-methyl-5-((4-(methyl(4-(3-(4-(trifluoromethoxy)phenyl)ureido)phenyl)amino)pyrimidin-2-yl)amino)benzamide], the IC50 [1, 3] was over 10000 nM and the IC50 [2, 4] was 97.3 nM.
With `CN(c1ccc(NC(=O)Nc2cc(C(F)(F)F)ccc2F)cc1)c1ccnc(Nc2cccc(S(N)(=O)=O)c2)n1` [Compound 3 from AU 2014903569, reference compound] the IC50 [1, 5] was 791 nM.
Work on `CNC(=O)c1cc(Nc2nccc(N(C)c3ccc(NC(=O)Nc4cc(F)cc(C(F)(F)F)c4)cc3)n2)ccc1OCCN1CCCC1` [Compound 32, 5-((4-((4-(3-(3-fluoro-5-(trifluoromethyl)phenyl)ureido)phenyl)(methyl)amino)pyrimidin-2-yl)amino)-N-methyl-2-(2-(pyrrolidin-1-yl)ethoxy)benzamide] yielded an IC50 [2, 4] of 40 nM.

Source: patent publication US20180057465A1, “Inhibitors of Necroptosis” (Catalyst Therapeutics Pty Ltd, priority 2015, published 2018)
